# Patent US20260151400A1, “USE OF ANTAGONISTS OF NEUROKININ-1 RECEPTOR AND NUCLEOSIDE ANALOGS FOR THE TREATMENT OF HERPESVIRIDAE” (THE REGENTS OF THE UNIVERSITY OF COLORADO, a body corporate, priority 2022, published 2026)
# Columns and labels:
# [1] = IV acyclovir; precipitation of aciclovir crystals in the kidney; cited from earlier work
# [2] = tested on: uninfected HA-sp (primary human spinal astrocytes); conditions: aprepitant tested at 1-100 μM, data not shown
# Description: After 24 hours, medium was changed to basal astrocyte medium containing 0.1% FBS and 1% 100× penicillin-streptomycin that was replenished every 72 hours for 7 days to establish quiescence. On day 7, spinal astrocytes were co-cultivated with VZV-infected spinal astrocytes (40 pfu/mL) or mock-infected spinal astrocytes.
# [3] = biological target: NK-1 receptors in the brain (Homo sapiens, UniProt P25103); conditions: occupies NK-1 receptors in the brain; cited from earlier work
# Chain of NK-1 receptors in the brain (P25103 whole entry): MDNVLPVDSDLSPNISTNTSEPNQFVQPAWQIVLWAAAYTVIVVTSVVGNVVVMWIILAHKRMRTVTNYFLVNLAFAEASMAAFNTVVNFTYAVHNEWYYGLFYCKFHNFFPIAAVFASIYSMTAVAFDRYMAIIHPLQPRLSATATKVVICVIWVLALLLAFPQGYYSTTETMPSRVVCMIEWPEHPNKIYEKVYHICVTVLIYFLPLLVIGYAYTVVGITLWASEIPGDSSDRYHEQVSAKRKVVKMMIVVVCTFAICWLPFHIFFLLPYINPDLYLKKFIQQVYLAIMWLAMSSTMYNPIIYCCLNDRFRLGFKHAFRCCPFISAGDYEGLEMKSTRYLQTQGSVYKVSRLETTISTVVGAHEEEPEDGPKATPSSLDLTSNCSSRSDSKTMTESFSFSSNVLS
SMILES,patients with reversible nephrotoxicity [1],optimal concentration to avoid cell death [2],blood-brain barrier crossing [3]
Nc1nc2c(ncn2COCCO)c(=O)[nH]1 [acyclovir],5-10%,–,–
C[C@@H](O[C@H]1OCCN(Cc2n[nH]c(=O)[nH]2)[C@H]1c1ccc(F)cc1)c1cc(C(F)(F)F)cc(C(F)(F)F)c1 [aprepitant],–,10 µM,crosses the blood-brain barrier
